Where two headings read alike, the source gives them in different places. *1 amine or outer side, *2 acyl side, *3 side chain or, on linkers, in order; H or OH if unused. Where a SMILES comes first, the peptide text is derived from it. Side-chain parts run from the residue outwards. [ ]: non-standard residue; d: D form. The star is where a group is joined. αMePhe(2-F) = C[C@](N)(Cc1ccccc1F)C(=O)O; γGlu = O=C(O)[C@H](CCC(=O)[*:2])N[*:1]; C14 diacid = O=C(O)CCCCCCCCCCCCC(=O)*; αMeY = C[C@](N)(Cc1ccc(O)cc1)C(=O)O; 4Pal = N[C@@H](Cc1ccncc1)C(=O)O; αMeL = CC(C)C[C@](C)(N)C(=O)O; Orn = NCCC[C@H](N)C(=O)O; AEEA = NCCOCCOCC(=O)O; Aib = CC(C)(N)C(=O)O
Legend:
Type in all cases: cell-based
hGCGR = molecular target: T1, hGCGR (Homo sapiens, UniProt P47871); experiment: Functional cAMP formation (HTRF) in HEK-293 clonal cells expressing hGCGR, 0.1% bovine casein, without or with 1.0% human serum albumin; details: geometric mean, read-out: hGCGR EC50, nM (SEM, n)
T1 construct: expressed in transfected cells
Summary of the method: (§1)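 Cells were stimulated with peptide for 30 min at 37° C, then lysed in buffer carrying cAMP-d2 and anti-cAMP Eu3+-cryptate for a competitive HTRF read after at least 60 min at room temperature. The 665/620 nm ratio was converted to nM cAMP against a standard curve.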

hGIPR = molecular target: T2, hGIPR (Homo sapiens, UniProt P48546); experiment: Functional cAMP formation (HTRF) in HEK-293 clonal cells expressing hGIPR, 0.1% bovine casein, without or with 1.0% human serum albumin; details: for EC50: geometric mean, read-out: hGIPR EC50, nM (SEM, n); for Emax: read-out: hGIPR Emax, % ± SEM
T2 construct: expressed in transfected cells
T2 sequence (P48546 22-466): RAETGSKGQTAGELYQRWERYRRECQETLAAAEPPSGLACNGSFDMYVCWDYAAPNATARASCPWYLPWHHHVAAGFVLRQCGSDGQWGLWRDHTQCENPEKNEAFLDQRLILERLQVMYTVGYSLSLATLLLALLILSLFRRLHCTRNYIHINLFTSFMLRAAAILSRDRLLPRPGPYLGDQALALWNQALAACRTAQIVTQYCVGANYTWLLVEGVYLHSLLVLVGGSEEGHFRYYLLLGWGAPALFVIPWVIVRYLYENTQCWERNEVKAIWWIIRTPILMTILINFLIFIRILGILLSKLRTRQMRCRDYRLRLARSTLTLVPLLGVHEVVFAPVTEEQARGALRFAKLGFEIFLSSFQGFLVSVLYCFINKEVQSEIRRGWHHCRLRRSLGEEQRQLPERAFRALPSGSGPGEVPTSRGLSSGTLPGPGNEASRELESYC
Summary of the method: as §1

hGLP-1R = hGLP-1R (Homo sapiens, UniProt P43220); experiment: Functional cAMP formation (HTRF) in HEK-293 clonal cells expressing hGLP-1R, 0.1% bovine casein, without or with 1.0% human serum albumin; parameters: expressed in transfected cells; details: for Emax: 37° C., read-out: hGLP-1R Emax, % ± SEM
Summary of the method: as §1

[1] = 0.1% bovine casein and 1.0% human serum albumin, 37° C.
[2] = cAMP, incubated at 37° C., 0.1% bovine casein (no human serum albumin)
[3] = HEK293, 0.1% bovine casein and 1.0% human serum albumin, 37° C., percent of maximal response to GIP(1-42)NH2
[4] = HEK293, percent of maximal response to GIP(1-42)NH2, 37° C., 0.1% bovine casein, arithmetic mean
[5] = HEK293, percent of maximal response to GLP-1(7-36)NH2, 0.1% bovine casein, arithmetic mean

T1 sequence (P47871 26-477): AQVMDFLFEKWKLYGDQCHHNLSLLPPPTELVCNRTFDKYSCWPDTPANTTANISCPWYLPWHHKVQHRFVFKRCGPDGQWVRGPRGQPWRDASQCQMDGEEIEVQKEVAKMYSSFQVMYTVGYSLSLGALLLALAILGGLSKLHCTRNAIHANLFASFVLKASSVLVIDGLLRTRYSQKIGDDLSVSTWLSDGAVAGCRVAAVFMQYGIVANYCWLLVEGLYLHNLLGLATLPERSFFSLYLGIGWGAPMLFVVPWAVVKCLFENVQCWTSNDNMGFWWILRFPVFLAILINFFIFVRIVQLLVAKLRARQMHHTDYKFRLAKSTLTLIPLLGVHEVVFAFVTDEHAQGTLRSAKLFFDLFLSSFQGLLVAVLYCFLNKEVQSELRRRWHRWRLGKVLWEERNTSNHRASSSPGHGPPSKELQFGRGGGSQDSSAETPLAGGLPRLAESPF
Sequence of hGLP-1R (P43220 24-463): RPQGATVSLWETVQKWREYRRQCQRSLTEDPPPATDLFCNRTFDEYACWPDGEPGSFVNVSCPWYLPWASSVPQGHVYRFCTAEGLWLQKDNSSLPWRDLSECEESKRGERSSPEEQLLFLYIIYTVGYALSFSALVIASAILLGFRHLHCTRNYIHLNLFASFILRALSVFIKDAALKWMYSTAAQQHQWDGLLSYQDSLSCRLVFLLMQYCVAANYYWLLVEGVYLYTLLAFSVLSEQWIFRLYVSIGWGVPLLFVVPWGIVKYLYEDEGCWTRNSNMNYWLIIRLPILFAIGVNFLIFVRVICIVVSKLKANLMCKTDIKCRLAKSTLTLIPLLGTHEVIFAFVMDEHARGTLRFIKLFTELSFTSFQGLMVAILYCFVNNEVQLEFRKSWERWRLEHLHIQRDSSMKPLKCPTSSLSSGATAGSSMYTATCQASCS

SMILES | EC50 (hGCGR; [1]) [nM] | EC50 (hGCGR; [2]) [nM] | EC50 (hGIPR; [1]) [nM] | Emax (hGIPR; [3]) [%] | Emax (hGIPR; [4]) [%] | Emax (hGLP-1R; [5]) [%] | EC50 (hGIPR; [2]) [nM] | Emax (hGLP-1R; HEK293, 0.1% bovine casein and 1.0% human serum albumin, percent of maximal response to GLP-1(7-36)NH2) [%] | EC50 (hGLP-1R; cAMP, incubated at 37° C., 0.1% bovine casein (no human serum albumin), geometric mean, read-out: hGLP-1R EC50, nM (SEM, n)) [nM]
CC[C@H](C)[C@H](NC(=O)[C@H](CC(C)C)NC(=O)[C@](C)(Cc1ccc(O)cc1)NC(=O)[C@@H](CCC(=O)O)NC(=O)[C@@H](NC(=O)[C@](C)(Cc1ccccc1F)NC(=O)[C@H](CCC(=O)O)NC(=O)C(C)(C)NC(=O)[C@H](CCC(N)=O)NC(=O)[C@H](C)NC(=O)[C@H](CCCCNC(=O)COCCOCCNC(=O)COCCOCCNC(=O)CC[C@H](NC(=O)CCCCCCCCCCCCC(=O)O)C(=O)O)NC(=O)[C@H](CCCN)NC(=O)[C@H](CC(=O)O)NC(=O)[C@H](CC(C)C)NC(=O)[C@](C)(CC(C)C)NC(=O)[C@@H](NC(=O)[C@H](CO)NC(=O)[C@H](Cc1ccncc1)NC(=O)[C@H](CC(=O)O)NC(=O)[C@H](CO)NC(=O)[C@@H](NC(=O)[C@](C)(Cc1ccccc1F)NC(=O)[C@@H](NC(=O)CNC(=O)[C@H](CCC(=O)O)NC(=O)C(C)(C)NC(=O)[C@@H](N)Cc1ccc(O)cc1)[C@@H](C)O)[C@@H](C)O)[C@@H](C)CC)[C@@H](C)CC)C(=O)N[C@@H](CCC(=O)O)C(=O)NCC(=O)NCC(=O)N[C@@H](CCCCNC(=O)COCCOCCNC(=O)COCCOCCNC(=O)CC[C@H](NC(=O)CCCCCCCCCCCCC(=O)O)C(=O)O)C(=O)N[C@@H](CO)C(=O)N[C@@H](CO)C(=O)NCC(=O)N[C@@H](C)C(=O)N1CCC[C@H]1C(=O)N1CCC[C@H]1C(=O)N1CCC[C@H]1C(=O)N[C@@H](CO)C(N)=O [Example 88] | > 9950 | > 9950 | 0.591 | 80.3 | 85.1 | 97.1 | – | – | –
CC[C@H](C)[C@H](NC(=O)[C@H](CCCN)NC(=O)[C@H](CC(=O)O)NC(=O)[C@H](CC(C)C)NC(=O)[C@](C)(CC(C)C)NC(=O)[C@@H](NC(=O)[C@H](CO)NC(=O)[C@H](Cc1ccncc1)NC(=O)[C@H](CC(=O)O)NC(=O)[C@H](CO)NC(=O)[C@@H](NC(=O)[C@](C)(Cc1ccccc1F)NC(=O)[C@@H](NC(=O)CNC(=O)[C@H](CCC(=O)O)NC(=O)C(C)(C)NC(=O)[C@@H](N)Cc1ccc(O)cc1)[C@@H](C)O)[C@@H](C)O)[C@@H](C)CC)C(=O)N[C@@H](C)C(=O)N[C@@H](CCC(N)=O)C(=O)NC(C)(C)C(=O)N[C@@H](CCC(=O)O)C(=O)N[C@@H](Cc1ccccc1)C(=O)N[C@H](C(=O)N[C@H](CCC(=O)O)C(=O)N[C@@](C)(Cc1ccc(O)cc1)C(=O)N[C@@H](CC(C)C)C(=O)N[C@H](C(=O)N[C@@H](CCCCNC(=O)COCCOCCNC(=O)COCCOCCNC(=O)COCCOCCNC(=O)CC[C@H](NC(=O)CCCCCCCCCCCCC(=O)O)C(=O)O)C(=O)NCC(=O)NCC(=O)N1CCC[C@H]1C(=O)N[C@@H](CO)C(=O)N[C@@H](CO)C(=O)NCC(=O)N[C@@H](C)C(=O)N1CCC[C@H]1C(=O)N1CCC[C@H]1C(=O)N1CCC[C@H]1C(=O)N[C@@H](CO)C(=O)N[C@@H](CCCCNC(=O)COCCOCCNC(=O)COCCOCCNC(=O)COCCOCCNC(=O)CC[C@H](NC(=O)CCCCCCCCCCCCC(=O)O)C(=O)O)C(N)=O)[C@@H](C)CC)[C@@H](C)CC [Example 229] (H-Y[Aib]EGT[αMePhe(2-F)]TSD[4Pal]SI[αMeL]LD[Orn]IAQ[Aib]EFI[dE][αMeY]LIK([AEEA-AEEA-AEEA-γGlu-C14 diacid])GGPSSGAPPPSK([AEEA-AEEA-AEEA-γGlu-C14 diacid])-NH2) | > 9950 | > 9950 | – | 80.5 | – | 94.3 | 0.0253 | 99 | 2.25
CC[C@H](C)[C@H](NC(=O)[C@H](CCCN)NC(=O)[C@H](CC(=O)O)NC(=O)[C@H](CC(C)C)NC(=O)[C@](C)(CC(C)C)NC(=O)[C@@H](NC(=O)[C@H](CO)NC(=O)[C@H](CCCCNC(=O)COCCOCCNC(=O)COCCOCCNC(=O)CC[C@H](NC(=O)CCCCCCCCCCCCC(=O)O)C(=O)O)NC(=O)[C@H](CC(=O)O)NC(=O)[C@H](CO)NC(=O)[C@@H](NC(=O)[C@](C)(Cc1ccccc1F)NC(=O)[C@@H](NC(=O)CNC(=O)[C@H](CCC(=O)O)NC(=O)C(C)(C)NC(=O)[C@@H](N)Cc1ccc(O)cc1)[C@@H](C)O)[C@@H](C)O)[C@@H](C)CC)C(=O)N[C@@H](C)C(=O)N[C@@H](CCC(N)=O)C(=O)NC(C)(C)C(=O)N[C@@H](CCC(=O)O)C(=O)N[C@@H](Cc1ccccc1)C(=O)N[C@H](C(=O)N[C@H](CCC(=O)O)C(=O)N[C@@](C)(Cc1ccc(O)cc1)C(=O)N[C@@H](CC(C)C)C(=O)N[C@H](C(=O)N[C@@H](CCC(=O)O)C(=O)NCC(=O)NCC(=O)N[C@@H](CCCCNC(=O)COCCOCCNC(=O)COCCOCCNC(=O)CC[C@H](NC(=O)CCCCCCCCCCCCC(=O)O)C(=O)O)C(=O)N[C@@H](CO)C(=O)N[C@@H](CO)C(=O)NCC(=O)N[C@@H](C)C(=O)N1CCC[C@H]1C(=O)N1CCC[C@H]1C(=O)N1CCC[C@H]1C(=O)N[C@@H](CO)C(N)=O)[C@@H](C)CC)[C@@H](C)CC [Example 108] (H-Y[Aib]EGT[αMePhe(2-F)]TSDK([AEEA-AEEA-γGlu-C14 diacid])SI[αMeL]LD[Orn]IAQ[Aib]EFI[dE][αMeY]LIEGGK([AEEA-AEEA-γGlu-C14 diacid])SSGAPPPS-NH2; N-terminus assumed) | – | > 9950 | – | – | 85.2 | 97.6 | 0.0249 | – | –
CC[C@H](C)[C@H](NC(=O)[C@H](CCCN)NC(=O)[C@H](CC(=O)O)NC(=O)[C@H](CC(C)C)NC(=O)[C@](C)(CC(C)C)NC(=O)[C@@H](NC(=O)[C@H](CO)NC(=O)[C@H](CCCCNC(=O)COCCOCCNC(=O)COCCOCCNC(=O)CC[C@H](NC(=O)CCCCCCCCCCCCC(=O)O)C(=O)O)NC(=O)[C@H](CC(=O)O)NC(=O)[C@H](CO)NC(=O)[C@@H](NC(=O)[C@](C)(Cc1ccccc1F)NC(=O)[C@@H](NC(=O)CNC(=O)[C@H](CCC(=O)O)NC(=O)C(C)(C)NC(=O)[C@@H](N)Cc1ccc(O)cc1)[C@@H](C)O)[C@@H](C)O)[C@@H](C)CC)C(=O)N[C@@H](C)C(=O)N[C@@H](CCC(N)=O)C(=O)NC(C)(C)C(=O)N[C@@H](CCC(=O)O)C(=O)N[C@@H](Cc1ccccc1)C(=O)N[C@H](C(=O)N[C@H](CCC(=O)O)C(=O)N[C@@](C)(Cc1ccc(O)cc1)C(=O)N[C@@H](CC(C)C)C(=O)N[C@H](C(=O)N[C@@H](CCCCNC(=O)COCCOCCNC(=O)COCCOCCNC(=O)CC[C@H](NC(=O)CCCCCCCCCCCCC(=O)O)C(=O)O)C(=O)NCC(=O)NCC(=O)N1CCC[C@H]1C(=O)N[C@@H](CO)C(=O)N[C@@H](CO)C(=O)NCC(=O)N[C@@H](C)C(=O)N1CCC[C@H]1C(=O)N1CCC[C@H]1C(=O)N1CCC[C@H]1C(=O)N[C@@H](CO)C(N)=O)[C@@H](C)CC)[C@@H](C)CC [Example 107] (H-Y[Aib]EGT[αMePhe(2-F)]TSDK([AEEA-AEEA-γGlu-C14 diacid])SI[αMeL]LD[Orn]IAQ[Aib]EFI[dE][αMeY]LIK([AEEA-AEEA-γGlu-C14 diacid])GGPSSGAPPPS-NH2) | – | > 9950 | – | – | 94.3 | 93.4 | 0.0473 | – | –

Reference: patent US20230265151A1, “GIP/GLP1 CO-AGONIST COMPOUNDS” (priority 2020, published 2023)
